Source: patent US10058550B2, “Methods of treating heart failure” (priority 2015, dated 2018)
pEC50: −log10 of the molar value.

Molecular target: human APJ receptor (Homo sapiens (Human), UniProt P35414)
Assay: biochemical
Type: biochemical
Settings: read-out: Activity hAPJ SPA EC50 IP
Method in brief: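 Membranes from CHO cells stably expressing cloned human APJ were incubated with WGA SPA beads in 20 mM HEPES pH 7.5, 5 mM MgCl2, 0.1% BSA, 200 mM NaCl and 3 μM GDP. Reaction started with 0.2 nM [35S]GTPγS ± ligands, 90 min at RT. EC50 obtained by non-linear regression as mean of independent experiments.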

human APJ receptor, sequence (P35414 whole entry): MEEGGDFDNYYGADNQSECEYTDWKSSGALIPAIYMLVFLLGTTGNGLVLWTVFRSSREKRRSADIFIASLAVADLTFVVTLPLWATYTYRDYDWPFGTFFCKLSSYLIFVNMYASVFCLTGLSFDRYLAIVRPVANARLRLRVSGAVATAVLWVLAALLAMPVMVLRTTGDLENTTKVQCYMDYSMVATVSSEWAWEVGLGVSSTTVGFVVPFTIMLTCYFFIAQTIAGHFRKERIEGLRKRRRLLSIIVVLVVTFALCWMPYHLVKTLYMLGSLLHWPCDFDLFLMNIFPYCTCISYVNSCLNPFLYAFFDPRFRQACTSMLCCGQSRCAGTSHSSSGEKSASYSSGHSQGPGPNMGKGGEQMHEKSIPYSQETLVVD

SMILES | pEC50
COc1cccc(OC)c1-n1c(NS(=O)(=O)/C(C)=C(\C)c2ncc(F)cn2)nnc1-c1cncc(C)c1 [Example 504.0, (2E)-N-(4-(2,6-dimethoxyphenyl)-5-(5-methyl-3-pyridinyl)-4H-1,2,4-triazol-3-yl)-3-(5-fluoro-2-pyrimidinyl)-2-butene-2-sulfonamide] | 7.74
COc1cccc(-c2nnc(NS(=O)(=O)/C(C)=C(\C)c3ncc(F)cn3)n2-c2c(OC)cccc2OC)n1 [Example 505.0, (2E)-N-(4-(2,6-dimethoxyphenyl)-5-(6-methoxy-2-pyridinyl)-4H-1,2,4-triazol-3-yl)-3-(5-fluoro-2-pyrimidinyl)-2-butene-2-sulfonamide] | 8.72
COc1cccc(OC)c1-n1c(NS(=O)(=O)[C@H](C)[C@@H](C)c2ncc(C)cn2)nnc1-c1cccnc1 [Example 585.0, (2R,3S)—N-(4-(2,6-dimethoxyphenyl)-5-(3-pyridinyl)-4H-1,2,4-triazol-3-yl)-3-(5-methyl-2-pyrimidinyl)-2-butanesulfonamide] | 7.60
COc1cccc(OC)c1-n1c(NS(=O)(=O)[C@@H](C)[C@H](OC)c2ncc(Cl)cn2)nnc1-c1cccnc1 [Example 591.0, (1R,2S)-1-(5-chloro-2-pyrimidinyl)-N-(4-(2,6-dimethoxyphenyl)-5-(3-pyridinyl)-4H-1,2,4-triazol-3-yl)-1-methoxy-2-propanesulfonamide] | 9.68
COc1cccc(OC)c1-n1c(NS(=O)(=O)[C@H](C)[C@@H](OC)c2ncc(Cl)cn2)nnc1-c1cccnc1 [Example 592.0, (1S,2R)-1-(5-chloro-2-pyrimidinyl)-N-(4-(2,6-dimethoxyphenyl)-5-(3-pyridinyl)-4H-1,2,4-triazol-3-yl)-1-methoxy-2-propanesulfonamide] | 8.00
CCO[C@H](c1ncc(Cl)cn1)[C@H](C)S(=O)(=O)Nc1nnc(-c2cncc(C)c2)n1-c1c(OC)cccc1OC [Example 610.0, (1R,2S)-1-(5-chloro-2-pyrimidinyl)-N-(4-(2,6-dimethoxyphenyl)-5-(5-methyl-3-pyridinyl)-4H-1,2,4-triazol-3-yl)-1-ethoxy-2-propanesulfonamide] | 9.52
COc1cccc(OC)c1-n1c(NS(=O)(=O)[C@H](C)[C@@H](O)c2cnc(C)cn2)nnc1-c1cccnc1 [Example 614.0, (1S,2R)—N-(4-(2,6-dimethoxyphenyl)-5-(3-pyridinyl)-4H-1,2,4-triazol-3-yl)-1-hydroxy-1-(5-methyl-2-pyrazinyl)-2-propanesulfonamide] | 8.77
COc1cccc(OC)c1-n1c(NS(=O)(=O)[C@@H](C)[C@H](O)c2cnc(C)cn2)nnc1-c1cccnc1 [Example 615.0, (1R,2S)—N-(4-(2,6-dimethoxyphenyl)-5-(3-pyridinyl)-4H-1,2,4-triazol-3-yl)-1-hydroxy-1-(5-methyl-2-pyrazinyl)-2-propanesulfonamide] | 7.19
COc1cccc(OC)c1-n1c(NS(=O)(=O)[C@@H](C)[C@H](O)c2ncc(C)cn2)nnc1-c1cccnc1 [Example 616.0, (1R,2S)—N-(4-(2,6-dimethoxyphenyl)-5-(pyridin-3-yl)-4H-1,2,4-triazol-3-yl)-1-hydroxy-1-(5-methylpyrimidin-2-yl)propane-2-sulfonamide] | 9.34
COc1cccc(OC)c1-n1c(NS(=O)(=O)CCc2ccc(F)cc2C#N)nnc1-c1cncc(C)c1 [Example 621.0, 2-(2-cyano-4-fluorophenyl)-N-(4-(2,6-dimethoxyphenyl)-5-(5-methyl-3-pyridinyl)-4H-1,2,4-triazol-3-yl)ethanesulfonamide] | 9.08
COc1ncnc(OC)c1-n1c(NS(=O)(=O)[C@@H](C)[C@H](OC)c2ncc(C)cn2)nnc1-c1ccccn1 [Example 628.0, (1R,2S)-N-(4-(4,6-dimethoxy-5-pyrimidinyl)-5-(2-pyridinyl)-4H-1,2,4-triazol-3-yl)-1-methoxy-1-(5-methyl-2-pyrimidinyl)-2-propanesulfonamide] | 8.19
COc1cccc(OC)c1-n1c(NS(=O)(=O)[C@@H](C)[C@H](OC)c2ncc(C)cn2)nnc1-c1ccccn1 [Example 629.0, (1R,2S)-N-(4-(2,6-dimethoxyphenyl)-5-(2-pyridinyl)-4H-1,2,4-triazol-3-yl)-1-methoxy-1-(5-methyl-2-pyrimidinyl)-2-propanesulfonamide] | 8.80
COCCOc1cccc(-c2nnc(NS(=O)(=O)[C@@H](C)[C@H](C)c3ncc(F)cn3)n2-c2c(OC)cccc2OC)n1 [Example 638.0, (2S,3R)-N-(4-(2,6-dimethoxyphenyl)-5-(6-(2-methoxyethoxy)pyridin-2-yl)-4H-1,2,4-triazol-3-yl)-3-(5-fluoropyrimidin-2-yl)butane-2-sulfonamide] | 9.19
CNc1cccc(-c2nnc(NS(=O)(=O)[C@@H](C)[C@H](C)c3ncc(F)cn3)n2-c2c(OC)cccc2OC)n1 [Example 641.0, (2S,3R)-N-(4-(2,6-dimethoxyphenyl)-5-(6-(methylamino)pyridin-2-yl)-4H-1,2,4-triazol-3-yl)-3-(5-fluoropyrimidin-2-yl)butane-2-sulfonamide] | 9.85
COc1cccc(OC(F)F)c1-n1c(NS(=O)(=O)[C@@H](C)[C@H](OC)c2ncc(C)cn2)nnc1-c1cccnc1 [Example 667.0, (1R,2S,P)-N-(4-(2-(difluoromethoxy)-6-methoxyphenyl)-5-(3-pyridinyl)-4H-1,2,4-triazol-3-yl)-1-methoxy-1-(5-methyl-2-pyrimidinyl)-2-propanesulfonamide and (1R,2S,M)-N-(4-(2-(difluoromethoxy)-6-methoxyphenyl)-5-(3-pyridinyl)-4H-1,2,4-triazol-3-yl)-1-methoxy-1-(5-methyl-2-pyrimidinyl)-2-propanesulfonamide] | 8.59
COc1cccc(OC(F)F)c1-n1c(NS(=O)(=O)[C@@H](C)[C@H](OC)c2ncc(C)cn2)nnc1-c1cncc(C)c1 [Example 668.0, (1R,2S,P)-N-(4-(2-(difluoromethoxy)-6-methoxyphenyl)-5-(5-methyl-pyridinyl)-4H-1,2,4-triazol-3-yl)-1-methoxy-1-(5-methyl-2-pyrimidinyl)-2-propanesulfonamide and (1R,2S,M)-N-(4-(2-(difluoromethoxy)-6-methoxyphenyl)-5-(5-methyl-3-pyridinyl)-4H-1,2,4-triazol-3-yl)-1-methoxy-1-(5-methyl-2-pyrimidinyl)-2-propanesulfonamide] | 9.12
CO[C@H](c1ncc(C)cn1)[C@H](C)S(=O)(=O)Nc1nnc(-c2cccnc2)n1-c1c(OC(F)F)cccc1OC(F)F [Example 669.0, (1R,2S)-N-(4-(2,6-bis(difluoromethoxy)phenyl)-5-(3-pyridinyl)-4H-1,2,4-triazol-3-yl)-1-methoxy-1-(5-methyl-2-pyrimidinyl)-2-propanesulfonamide] | 8.57
CO[C@H](c1ncc(C)cn1)[C@H](C)S(=O)(=O)Nc1nnc(-c2cncc(C)c2)n1-c1c(OC(F)F)cccc1OC(F)F [Example 670.0, (1R,2S)-N-(4-(2,6-bis(difluoromethoxy)phenyl)-5-(5-methyl-3-pyridinyl)-4H-1,2,4-triazol-3-yl)-1-methoxy-1-(5-methyl-2-pyrimidinyl)-2-propanesulfonamide] | 9.26
CO[C@H](c1ncc(C)cn1)[C@H](C)S(=O)(=O)Nc1nnc(-c2cncc(C)c2)n1-c1c(Cl)cccc1Cl [Example 675.0, (1R,2S)-N-(4-(2,6-dichlorophenyl)-5-(5-methyl-3-pyridinyl)-4H-1,2,4-triazol-3-yl)-1-methoxy-1-(5-methyl-2-pyrimidinyl)-2-propanesulfonamide 2,2,2-trifluoroacetate] | 8.59
COc1cccc(-c2nnc(NS(=O)(=O)CCc3ncc(F)cn3)n2-c2c(OC)cccc2OC)n1 [Example 676.0, N-(4-(2,6-dimethoxyphenyl)-5-(6-methoxy-2-pyridinyl)-4H-1,2,4-triazol-3-yl)-2-(5-fluoro-2-pyrimidinyl)ethanesulfonamide 2,2,2-trifluoroacetate] | 8.22
CO[C@H](c1ncc(C)cn1)[C@H](C)S(=O)(=O)Nc1nnc(-c2cncc(C)c2)n1-c1c(F)cccc1F [Example 677.0, (1R,2S)-N-(4-(2,6-difluorophenyl)-5-(5-methylpyridin-3-yl)-4H-1,2,4-triazol-3-yl)-1-methoxy-1-(5-methylpyrimidin-2-yl)propane-2-sulfonamide 2,2,2-trifluoroacetate] | 8.14
COc1cnc([C@@H](C)[C@H](C)S(=O)(=O)Nc2nnc(-c3cncc(C)c3)n2-c2c(OC)cccc2OC)nc1 [Example 682.0, (2S,3R)-N-(4-(2,6-dimethoxyphenyl)-5-(5-methyl-3-pyridinyl)-4H-1,2,4-triazol-3-yl)-3-(5-methoxy-2-pyrimidinyl)-2-butanesulfonamide 2,2,2-trifluoroacetate] | 9.70
COc1cccc(-c2nnc(NS(=O)(=O)[C@@H](C)[C@H](OC)c3ncc(C)cn3)n2-c2c(F)cccc2F)n1 [Example 684.0, (1R,2S)-N-(4-(2,6-difluorophenyl)-5-(6-methoxy-2-pyridinyl)-4H-1,2,4-triazol-3-yl)-1-methoxy-1-(5-methyl-2-pyrimidinyl)-2-propanesulfonamide] | 9.09
COc1cnc([C@@H](OC)[C@@H](C)S(=O)(=O)Nc2nnc(-c3cncc(C)c3)n2-c2c(OC)cccc2OC)nc1 [Example 687.0, (1R,2R)-N-(4-(2,6-dimethoxyphenyl)-5-(5-methyl-3-pyridinyl)-4H-1,2,4-triazol-3-yl)-1-methoxy-1-(5-methoxy-2-pyrimidinyl)-2-propanesulfonamide 2,2,2-trifluoroacetate] | 8.33
COc1ncnc(OC)c1-n1c(NS(=O)(=O)[C@@H](C)[C@H](C)c2ncc(Cl)cn2)nnc1-c1cccnc1 [Example 709.0, (2S,3R)-3-(5-chloro-2-pyrimidinyl)-N-(4-(4,6-dimethoxy-5-pyrimidinyl)-5-(3-pyridinyl)-4H-1,2,4-triazol-3-yl)-2-butanesulfonamide] | 9.15
